Key:
[1] = Time-dependent inhibition of CYP2C19 in human liver microsomes using S-mephenytoin as substrate preincubated for 30 mins
[2] = Time-dependent inhibition of CYP2C8 in human liver microsomes using amodiaquine as substrate preincubated for 30 mins
[3] = Time-dependent inhibition of CYP2D6 in human liver microsomes using bufuralol as substrate preincubated for 30 mins
[4] = Direct inhibition of CYP2C19 in human liver microsomes using S-mephenytoin as substrate
[5] = Time-dependent inhibition of CYP2C9 in human liver microsomes using diclofenac as substrate preincubated for 30 mins
[6] = Time-dependent inhibition of CYP1A2 in human liver microsomes using Phenacetin as substrate preincubated for 30 mins
[7] = Direct inhibition of CYP2C8 in human liver microsomes using amodiaquine as substrate
[8] = Direct inhibition of CYP1A2 in human liver microsomes using Phenacetin as substrate
[9] = Direct inhibition of CYP2D6 in human liver microsomes using bufuralol as substrate
[10] = Direct inhibition of CYP2C9 in human liver microsomes using diclofenac as substrate

IC50 [1]: > 10 mM | IC50 [2]: > 10 mM | IC50 [3]: > 10 mM | IC50 [4]: > 10 mM | IC50 [5]: > 10 mM | IC50 [6]: > 10 mM | IC50 [7]: > 10 mM | IC50 [8]: > 10 mM | IC50 [9]: > 10 mM | IC50 [10]: > 10 mM
SMILES: CCC(C)(C)C(=O)O [2,2-DIMETHYLBUTYRATE]

Source: BindingDB's records for doi:10.1021/acs.jmedchem.1c00124 (Hemoshear Therapeutics, 2021)
